Test results: PubChem BioAssay AID248 (DTP/NCI, 2004)
Where “and” joins values, the source holds several entries; their conditions need not be identical. Equal values may be shown once. Inconclusive results and toxic doses are left out.

Tested on: L1210 leukemia ip in BDF1 mice, survival T/C
Assay: NCI In Vivo Anticancer Drug Screen. Data for tumor model L1210 Leukemia (intraperitoneal) in B6D2F1 (BDF1) mice
Settings: endpoint: mean survival time, higher = longer survival
In short: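 Survival endpoint. Drug-treated group vs vehicle group, expressed as T divided by C. Tumor passaged by transplantation.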

[1] = dose: 200.0 mg/kg/injection, schedule: Q04DX002 (ip), vehicle: saline
[2] = dose: 100.0 mg/kg/injection, schedule: Q04DX003 (ip), vehicle: saline with Tween-80
[3] = dose: 200.0 mg/kg/injection, schedule: Q04DX003 (ip), vehicle: saline with Tween-80
[4] = dose: 400.0 mg/kg/injection, schedule: Q04DX003 (ip), vehicle: saline with Tween-80
[5] = dose: 100.0 mg/kg/injection, schedule: Q04DX002 (ip), vehicle: Klucel (hydroxypropylcellulose) (HPC)
[6] = dose: 200.0 mg/kg/injection, schedule: Q04DX002 (ip), vehicle: Klucel (hydroxypropylcellulose) (HPC)
[7] = dose: 400.0 mg/kg/injection, schedule: Q04DX002 (ip), vehicle: Klucel (hydroxypropylcellulose) (HPC)
[8] = dose: 100.0 mg/kg/injection, schedule: Q04DX002 (ip), vehicle: saline with Tween-80
[9] = dose: 200.0 mg/kg/injection, schedule: Q04DX002 (ip), vehicle: saline with Tween-80
[10] = dose: 400.0 mg/kg/injection, schedule: Q04DX002 (ip), vehicle: saline with Tween-80
[11] = dose: 100.0 mg/kg/injection, schedule: Q04DX003 (ip), vehicle: Klucel (hydroxypropylcellulose) (HPC)
[12] = dose: 200.0 mg/kg/injection, schedule: Q04DX003 (ip), vehicle: Klucel (hydroxypropylcellulose) (HPC)
[13] = dose: 400.0 mg/kg/injection, schedule: Q04DX003 (ip), vehicle: Klucel (hydroxypropylcellulose) (HPC)
[14] = dose: 100.0 mg/kg/injection, schedule: Q01DX001 (ip), vehicle: saline
[15] = dose: 200.0 mg/kg/injection, schedule: Q01DX001 (ip), vehicle: saline
[16] = dose: 400.0 mg/kg/injection, schedule: Q01DX001 (ip), vehicle: saline
[17] = dose: 100.0 mg/kg/injection, schedule: Q01DX001 (ip), vehicle: carboxymethylcellulose (CMC)
[18] = dose: 200.0 mg/kg/injection, schedule: Q01DX001 (ip), vehicle: carboxymethylcellulose (CMC)
[19] = dose: 400.0 mg/kg/injection, schedule: Q01DX001 (ip), vehicle: carboxymethylcellulose (CMC)
[20] = dose: 200.0 mg/kg/injection, schedule: Q04DX003 (ip), vehicle: saline
[21] = dose: 50.0 mg/kg/injection, schedule: Q01DX001 (ip), vehicle: saline
[22] = dose: 6.25 mg/kg/injection, schedule: Q01DX009 (ip), vehicle: saline
[23] = dose: 12.5 mg/kg/injection, schedule: Q01DX009 (ip), vehicle: saline
[24] = dose: 25.0 mg/kg/injection, schedule: Q01DX009 (ip), vehicle: saline

With `C(=Nc1ccc(N=Cc2ccco2)cc1)c1ccco1` the T/C (dose: 87.5 mg/kg/injection, schedule: Q01DX009 (ip), vehicle: Klucel (hydroxypropylcellulose) (HPC)) was 93 % of control, the T/C (dose: 175.0 mg/kg/injection, schedule: Q01DX009 (ip), vehicle: Klucel (hydroxypropylcellulose) (HPC)) was 100 % of control and the T/C (dose: 350.0 mg/kg/injection, schedule: Q01DX009 (ip), vehicle: Klucel (hydroxypropylcellulose) (HPC)) was 97 % of control.

`CCNCC(=O)O` was tested, and the T/C (dose: 100.0 mg/kg/injection, schedule: Q04DX002 (ip), vehicle: saline) was 96 % of control, the T/C [1] was 101 % of control and the T/C (dose: 400.0 mg/kg/injection, schedule: Q04DX002 (ip), vehicle: saline) was 104 % of control.

With `CCC(C)C(NC(=O)C1CSC(C)(C)N1C=O)C(=O)OC1CCCCC1` (stereo not given) the T/C [2] was 98 % of control, the T/C [3] was 97 % of control and the T/C [4] was 101 % of control.

For `Nc1ccc2c(c1)S(=O)(=O)c1cc(N)c(S(=O)(=O)O)cc1-2`, the T/C [5] was 115 % of control, the T/C [6] was 94 % of control and the T/C [7] was 97 % of control.

`Nc1c(Cl)cc(I)cc1C(=O)O` was tested, and the T/C [5] was 94 % of control, the T/C [6] was 102 % of control and the T/C [7] was 102 % of control.

In the case of `O=C(O)C1=C2C(=O)Nc3cccc(c32)C2(C1)C(=O)Nc1ccccc12` (stereo not given), the T/C [8] is reported as 103 % of control, the T/C [9] is reported as 103 % of control and the T/C [10] is reported as 103 % of control.

With `Cc1ccc(-c2nnc3n2C(C)(C)N=C(N)N3)cc1` the T/C [2] was 105 % of control, the T/C [3] was 91 % of control and the T/C [4] was 101 % of control.

In the case of `Cc1ccc([N+](=O)[O-])cc1NC(=O)Cc1ccccc1`, the T/C [5] is reported as 101 % of control, the T/C [6] is reported as 93 % of control and the T/C [7] is reported as 93 % of control.

In the case of `COc1cc([N+](=O)[O-])ccc1-c1c(C(=O)O)cccc1[N+](=O)[O-]`, the T/C [11] is reported as 101 % of control, the T/C [12] is reported as 95 % of control and the T/C [13] is reported as 90 % of control.

With `Oc1ccc(Br)cc1C=Nc1ccccc1` the T/C [8] was 96 % of control, the T/C [9] was 104 % of control and the T/C [10] was 100 % of control.

With `Clc1nc(Cl)c(Cl)[nH]1` the T/C (dose: 6.25 mg/kg/injection, schedule: Q01DX009 (ip), vehicle: saline with Tween-80) was 94 % of control and the T/C (dose: 12.5 mg/kg/injection, schedule: Q01DX009 (ip), vehicle: saline with Tween-80) was 93 % of control.

In the case of `Brc1ccc(SCN(CSc2ccc(Br)cc2)Cc2ccccc2)cc1`, the T/C [14] is reported as 93 % of control, the T/C [15] is reported as 87 % of control and the T/C [16] is reported as 93 % of control.

`COc1ccc(C(=O)CC(C#N)c2ccc(OC)c(OC)c2)cc1OC` (stereo not given) was tested, and the T/C (dose: 100.0 mg/kg/injection, schedule: Q01DX009 (ip), vehicle: saline with Tween-80) was 100 % of control, the T/C (dose: 200.0 mg/kg/injection, schedule: Q01DX009 (ip), vehicle: saline with Tween-80) was 96 % of control and the T/C (dose: 400.0 mg/kg/injection, schedule: Q01DX009 (ip), vehicle: saline with Tween-80) was 100 % of control.

`CCN(CC)CCNc1ccc(CO)c2oc3cc(Cl)ccc3c(=O)c12` was tested, and the T/C (dose: 31.25 mg/kg/injection, schedule: Q01DX009 (ip), vehicle: Klucel (hydroxypropylcellulose) (HPC)) was 94 % of control, the T/C (dose: 62.5 mg/kg/injection, schedule: Q01DX009 (ip), vehicle: Klucel (hydroxypropylcellulose) (HPC)) was 100 % of control and the T/C (dose: 125.0 mg/kg/injection, schedule: Q01DX009 (ip), vehicle: Klucel (hydroxypropylcellulose) (HPC)) was 96 % of control.

In the case of `CN(C/C=C/CN(C)P(=S)(N1CC1)N1CC1)P(=S)(N1CC1)N1CC1`, the T/C [17] is reported as 96 % of control, the T/C [18] is reported as 93 % of control and the T/C [19] is reported as 109 % of control.

With `O=C(C[n+]1cccc(C(=O)Nc2ccccc2)c1)Nc1ccc(Cl)cc1` the T/C (dose: 50.0 mg/kg/injection, schedule: Q04DX003 (ip), vehicle: saline) was 98 % of control, the T/C [14] was 96 % of control and the T/C (dose: 100.0 mg/kg/injection, schedule: Q04DX003 (ip), vehicle: saline) was 102 % of control. For the same molecule, the T/C [15] was 89 % of control and the T/C [20] was 98 % of control.

In the case of `CC(=O)Nc1ncn[nH]1`, the T/C [21] is reported as 98 % of control, the T/C [14] is reported as 98 % of control and the T/C [15] is reported as 101 % of control. For the same molecule, the T/C [16] was 101 % of control.

For `CCN(CC)CCC1CCNCC1`, the T/C [22] was 101 % of control, the T/C [23] was 95 % of control and the T/C (dose: 12.5 mg/kg/injection, schedule: Q04DX003 (ip), vehicle: saline) was 100 % of control. The T/C [24] was 98 % of control and the T/C (dose: 25.0 mg/kg/injection, schedule: Q04DX003 (ip), vehicle: saline) was 96 % of control.

In the case of `COc1ccc(C2(Br)C(=O)NN=C2C)cc1` (stereo not given), the T/C [14] is reported as 95 % of control, the T/C [15] is reported as 100 % of control and the T/C [16] is reported as 95 % of control.

`CCOP(=O)(OCC)Oc1ccc(S(C)=O)cc1` (stereo not given) was tested, and the T/C (dose: 5.0 mg/kg/injection, schedule: Q01DX001 (ip), vehicle: saline) was 114 % of control.

With `Cc1ccc(O)c(N=O)c1.[Co]` the T/C [21] was 97 % of control, the T/C [14] was 109 % of control and the T/C [15] was 115 % of control.

With `Brc1cccc2c(I)cccc12` the T/C [17] was 95 % of control, the T/C [18] was 98 % of control and the T/C [19] was 92 % of control.

In the case of `CONP(=O)(Oc1ccccc1)Oc1ccccc1`, the T/C [17] is reported as 95 % of control, the T/C [18] is reported as 95 % of control and the T/C [19] is reported as 97 % of control.

With `CCN(CC)CCCNc1nnc2c(=O)n(C)c(=O)n(C)c2n1` the T/C (dose: 75.0 mg/kg/injection, schedule: Q04DX003 (ip), vehicle: saline) was 112 % of control, the T/C (dose: 150.0 mg/kg/injection, schedule: Q04DX003 (ip), vehicle: saline) was 93 % of control and the T/C (dose: 300.0 mg/kg/injection, schedule: Q04DX003 (ip), vehicle: saline) was 100 % of control.

`CCc1ccccc1N/N=C(\Cl)C(C)=O` was tested, and the T/C [22] was 106 % of control, the T/C [23] was 106 % of control and the T/C [24] was 95 % of control.

With `Oc1ccccc1C=Nc1cnc2ccccc2c1` the T/C [17] was 95 % of control, the T/C [18] was 98 % of control and the T/C [19] was 95 % of control.

`COc1cc2c(c(OC)c1O)-c1ccc(OC)c(=O)cc1[C@@H](NC(C)=O)CC2` was tested, and the T/C [24] was 159 % of control, the T/C (dose: 50.0 mg/kg/injection, schedule: Q01DX009 (ip), vehicle: saline) was 106 % of control and 108 % of control and the T/C (dose: 50.0 mg/kg/injection, schedule: Q04DX002 (ip), vehicle: saline) was 111 % of control. The T/C [1] was 122 % of control and the T/C [20] was 95 % of control.

`ClCCc1ccc(-n2cnc3c(Cl)ncnc32)cc1` was tested, and the T/C (dose: 50.0 mg/kg/injection, schedule: Q01DX001 (ip), vehicle: carboxymethylcellulose (CMC)) was 104 % of control, the T/C [17] was 106 % of control and the T/C [18] was 101 % of control. For the same molecule, the T/C [19] was 98 % of control.

With `COc1cc(/C=N\N=C\c2ccc(O)c(OC)c2)ccc1O` the T/C [2] was 100 % of control, the T/C [3] was 94 % of control and the T/C [4] was 93 % of control.

In the case of `CC1OC=CC(O)C1O` (stereo not given), the T/C [21] is reported as 94 % of control, the T/C [14] is reported as 100 % of control and the T/C [15] is reported as 105 % of control. The T/C [16] was 97 % of control.

With `CCC[n+]1nc2ccccc2c(=Nc2ccccc2[N+](=O)[O-])[n-]1` the T/C (dose: 100.0 mg/kg/injection, schedule: Q01DX001 (ip), vehicle: Klucel (hydroxypropylcellulose) (HPC)) was 100 % of control, the T/C [11] was 98 % of control and the T/C (dose: 200.0 mg/kg/injection, schedule: Q01DX001 (ip), vehicle: Klucel (hydroxypropylcellulose) (HPC)) was 100 % of control. For the same molecule, the T/C [12] was 106 % of control, the T/C (dose: 400.0 mg/kg/injection, schedule: Q01DX001 (ip), vehicle: Klucel (hydroxypropylcellulose) (HPC)) was 98 % of control and the T/C [13] was 101 % of control.

For `COc1nc(N)nc2c1nnn2C1OC(CO)C(O)C1O` (stereo not given), the T/C (dose: 44.0 mg/kg/injection, schedule: Q01DX001 (ip), vehicle: Klucel (hydroxypropylcellulose) (HPC)) was 108 % of control, the T/C (dose: 66.0 mg/kg/injection, schedule: Q01DX001 (ip), vehicle: Klucel (hydroxypropylcellulose) (HPC)) was 103 % of control and the T/C (dose: 150.0 mg/kg/injection, schedule: Q01DX001 (ip), vehicle: Klucel (hydroxypropylcellulose) (HPC)) was 122 % of control.
